The source of these data is US8119602B2, “Administration of HCV protease inhibitors in combination with food to improve bioavailability” (Schering Corporation, priority 2005, dated 2012).

Where two headings read alike, the source gives them in different places.

Data set [1] is described as follows: Serum levels after two weeks of 400 mg bid or tid dosing. In kind it is in vivo, healthy subjects. The following applies: 400 mg tid for two weeks; day 14. The method, then:
Healthy subjects were dosed with two regimens of 400 mg. of a compound of Formula 1a, twice per day (bid) or three times per day (tid) for a period of two weeks. Blood samples were taken on day 14 in the morning at time zero (pre-dose) and at 12 hours post-dose (for the bid regimen) or 8 hours post-dose (for the tid regimen). As shown in the box plots, with tid dosing a metabolism effect is observed. Serum levels of the drug are higher at time zero, 8 hours after the previous evening dose, as compared to serum levels of the drug when measured 8 hours following the morning dose.

Data set [2] can be described thus: Single dose, randomized fed vs. fasted study of the effect of food on bioavailability (pharmacokinetics). The following applies: for Relative bioavailability, AUC (tf) Ratio Estimate / Relative bioavailability, AUC(l) Ratio Estimate / Relative bioavailability, Cmax Ratio Estimate: fed vs fasted; for increase of Cmax relative to fasted state / increase of mean AUCs relative to fasted state: based on ratio estimates; for half-life: read-out: t½ (mean) (converted). Format: in vivo, healthy subjects. As to the method: A single dose, randomized, two-treatment (fed vs. fasted) study was conducted to assess the effect of food on bioavailability of a compound of the present invention (SCH 503034 or Compound Ia). A single oral dose of 600 mg. of compound of Formula Ia was administered to two groups of healthy subjects. Group A received the dose after an overnight 10-hour fast; Group B received the dose about twenty minutes after consuming a high fat breakfast of 850 calories having 53.8 g fat (57% of calories from fat) or low fat breakfast of 451 calories. Blood samples were collected immediately prior to dosing (time zero) and at times 0.5, 1, 1.5, 2, 2.5, 3, 4, 6, 8, 12, 24, 36, 48, and 72 hours post dose. Results of measurement of mean maximum concentration (Cmax) of compound of Formula Ia in serum in ng/ml are shown in Table 1 and FIG. 1 (graph of mean plasma concentration of the compound versus Time). Calculations of AUC(tf) (area under the curve at time final), AUC(I) (area under the curve extrapolated to infinity), t½ (time at which one-half of the compound has disappeared from the blood), Tmax (time at which maximum serum concentration is achieved), CL/F (clearance divided by bioavailability), and Vd/F (volume of distribution divided by bioavailability) are made according to standard formulas known to one skilled in the art of drug metabolism and pharmacokintics.

Setting [3] is: human, serum, po, 600 mg, single oral dose 600 mg, fasted, balanced data.
Where [4] appears, read: human, serum, po, 600 mg, single oral dose 600 mg, fed (high fat diet), balanced data.
The mark [5] stands for this setting: human, serum, po, 600 mg, single oral dose 600 mg, fed (non fat diet), balanced data.

`CC(C)(C)NC(=O)N[C@H](C(=O)N1C[C@H]2[C@@H]([C@H]1C(=O)NC(CC1CCC1)C(=O)C(N)=O)C2(C)C)C(C)(C)C` (stereo partly drawn) [compound of Formula 1a, (1R,5S)-N-[3-Amino-1-(Cyclobutylmethyl)-2,3-Dioxopropyl]-3-[2(S)-[[[(1,1-Dimethylethyl)Amino]Carbonyl]Amino]-3,3-Dimethyl-1-Oxobutyl]-6,6-Dimethyl-3-Azabicyclo[3.1.0]Hexan-2(S)-Carboxamide]: the “serum levels at time zero (8 hours after the previous evening dose) compared to 8 hours following the morning dose” value in data set [1] is “higher”.

With `CC(C)(C)NC(=O)N[C@H](C(=O)N1C[C@H]2[C@@H]([C@H]1C(=O)NC(CC1CCC1)C(=O)C(N)=O)C2(C)C)C(C)(C)C` (mixture of isomers) [SCH 503034], the “Relative bioavailability, AUC (tf) Ratio Estimate” value in data set [2] (compare B/A, balanced data) is 317%; in data set [2] (compare C/A, balanced data) it was 182%. Further, the “Relative bioavailability, AUC(l) Ratio Estimate” value in data set [2] (compare B/A, balanced data) is 276%; in data set [2] (compare C/A, balanced data) it was 167%. Besides, the “Relative bioavailability, Cmax Ratio Estimate” value in data set [2] (compare B/A, balanced data) is 223%; in data set [2] (compare C/A, balanced data), 129%. For the same compound, the absorption lag time in data set [2] (fed state with high fat diet, in 8 of the 12 subjects who completed all three periods) is 0.5 h; in data set [2] (fed state with non fat diet, 7 subjects), 0.5 h. Further, the “increase of Cmax relative to fasted state” value in data set [2] (high fat diet) is listed as 123%; in data set [2] (non fat diet), 29%. Also, the “increase of mean AUCs relative to fasted state” value was “over 200%” in data set [2] (high fat diet) and “about 100%” in data set [2] (non fat diet). For the same compound, the Cmax in data set [2] (setting [3]) was 0.502 µg/mL; in data set [2] (setting [4]), 1.15 µg/mL; in data set [2] (setting [5]) it was 0.639 µg/mL. Further, the Vd/F in data set [2] (setting [3]) came to 4580 L; in data set [2] (setting [4]) it was 418 L; in data set [2] (setting [5]) it was 1140 L. Further, the AUC was determined as 1.63 µg·h/mL in data set [2] (human, serum, po, 600 mg, single oral dose 600 mg, fasted, balanced data, read-out: AUC(l) (mean)); 1.56 µg·h/mL in data set [2] (human, serum, po, 600 mg, single oral dose 600 mg, fasted, balanced data, read-out: AUC(tf) (mean)); 4.44 µg·h/mL in data set [2] (human, serum, po, 600 mg, single oral dose 600 mg, fed (high fat diet), balanced data, read-out: AUC(l) (mean)); 5.09 µg·h/mL in data set [2] (human, serum, po, 600 mg, single oral dose 600 mg, fed (high fat diet), balanced data, read-out: AUC(tf) (mean)); 2.75 µg·h/mL in data set [2] (human, serum, po, 600 mg, single oral dose 600 mg, fed (non fat diet), balanced data, read-out: AUC(l) (mean)); 3.04 µg·h/mL in data set [2] (human, serum, po, 600 mg, single oral dose 600 mg, fed (non fat diet), balanced data, read-out: AUC(tf) (mean)). Moreover, the Tmax in data set [2] (human, serum, po, 600 mg, single oral dose 600 mg, fasted, balanced data, read-out: Tmax, median (range)) came to 1.5 h. The half-life was 7.61 h in data set [2] (setting [3]), 2.01 h in data set [2] (setting [4]) and 3.2 h in data set [2] (setting [5]). Besides, the “CL/F (mean)” value is 407 L/h in data set [2] (single oral dose 600 mg, fasted, balanced data); 144.0 L/h in data set [2] (single oral dose 600 mg, fed (high fat diet), balanced data); 243 L/h in data set [2] (single oral dose 600 mg, fed (non fat diet), balanced data). The “rate of absorption in the fed state (vs fasted)” value in data set [2] (single oral dose 600 mg, fed state) was “more slowly”.
